Earlier results in patent US9314435B2, “Stable formulations of antiplatelet agents, omega-3 fatty acids and amylose in soft gelatin capsules” (ALTERGON S.A., priority 2011, dated 2016).

Conditions: 325 mg on alternate days

CC(=O)Oc1ccccc1C(=O)O [ASA, Acetylsalicylic acid]
reduction of the risk of the first heart attack: 44%
